The values that follow come from ChEMBL document CHEMBL5291721, “A preclinical secondary pharmacology resource illuminates target-adverse drug reaction associations of marketed drugs” (Nat Commun, 2023).

Where only a bound is given, the exact number is not on record here.

Assay [1] concerns the target Mu-type opioid receptor (Homo sapiens, UniProt P35372).
For assay [2], the target named is T1, Progesterone receptor (Homo sapiens, UniProt P06401).
T1 sequence (P06401 whole entry): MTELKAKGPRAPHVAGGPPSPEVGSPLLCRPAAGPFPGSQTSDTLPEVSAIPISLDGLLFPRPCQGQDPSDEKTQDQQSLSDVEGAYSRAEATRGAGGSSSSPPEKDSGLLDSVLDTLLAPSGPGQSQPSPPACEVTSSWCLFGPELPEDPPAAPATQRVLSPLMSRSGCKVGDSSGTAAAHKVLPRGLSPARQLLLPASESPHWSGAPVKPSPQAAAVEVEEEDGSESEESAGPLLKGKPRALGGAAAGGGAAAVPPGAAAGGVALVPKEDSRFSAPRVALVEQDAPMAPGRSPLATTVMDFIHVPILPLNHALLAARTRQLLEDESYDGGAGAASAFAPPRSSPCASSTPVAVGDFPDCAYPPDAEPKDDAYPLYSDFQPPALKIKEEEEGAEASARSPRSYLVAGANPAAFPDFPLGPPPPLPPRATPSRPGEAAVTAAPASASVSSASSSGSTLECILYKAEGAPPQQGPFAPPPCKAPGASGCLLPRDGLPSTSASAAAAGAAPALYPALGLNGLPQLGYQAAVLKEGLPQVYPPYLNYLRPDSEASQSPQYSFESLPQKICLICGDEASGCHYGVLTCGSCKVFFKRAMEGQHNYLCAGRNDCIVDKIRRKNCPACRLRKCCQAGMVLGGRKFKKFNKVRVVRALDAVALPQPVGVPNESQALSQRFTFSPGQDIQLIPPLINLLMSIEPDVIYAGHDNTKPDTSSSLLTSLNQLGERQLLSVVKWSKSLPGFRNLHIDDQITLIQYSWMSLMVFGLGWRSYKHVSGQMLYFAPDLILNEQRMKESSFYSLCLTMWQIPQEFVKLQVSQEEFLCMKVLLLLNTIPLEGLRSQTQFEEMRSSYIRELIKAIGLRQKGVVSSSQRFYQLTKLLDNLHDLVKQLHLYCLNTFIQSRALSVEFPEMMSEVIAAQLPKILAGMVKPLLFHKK
It counts as functional.

Assay [3] deals with 5-hydroxytryptamine receptor 2B (Homo sapiens, UniProt P41595). It counts as functional, cell-based.
Assay [4] concerns the target T2, Alpha-1A adrenergic receptor (Homo sapiens, UniProt P35348).
T2 sequence (P35348 whole entry): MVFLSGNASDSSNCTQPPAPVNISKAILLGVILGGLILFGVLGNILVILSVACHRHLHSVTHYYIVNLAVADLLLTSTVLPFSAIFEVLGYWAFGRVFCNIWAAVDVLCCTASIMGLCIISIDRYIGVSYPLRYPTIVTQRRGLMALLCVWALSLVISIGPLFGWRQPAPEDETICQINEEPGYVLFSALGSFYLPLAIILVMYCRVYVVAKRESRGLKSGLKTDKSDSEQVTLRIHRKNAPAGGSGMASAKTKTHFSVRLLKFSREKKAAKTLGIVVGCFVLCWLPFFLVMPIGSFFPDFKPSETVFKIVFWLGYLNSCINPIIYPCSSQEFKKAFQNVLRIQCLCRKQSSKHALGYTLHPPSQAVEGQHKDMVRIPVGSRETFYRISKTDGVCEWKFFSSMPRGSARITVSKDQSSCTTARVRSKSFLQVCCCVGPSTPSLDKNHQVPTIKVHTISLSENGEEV

Assay [5] addresses T3, Prostaglandin G/H synthase 1 (Rattus norvegicus, UniProt Q63921).
T3 sequence (Q63921 whole entry): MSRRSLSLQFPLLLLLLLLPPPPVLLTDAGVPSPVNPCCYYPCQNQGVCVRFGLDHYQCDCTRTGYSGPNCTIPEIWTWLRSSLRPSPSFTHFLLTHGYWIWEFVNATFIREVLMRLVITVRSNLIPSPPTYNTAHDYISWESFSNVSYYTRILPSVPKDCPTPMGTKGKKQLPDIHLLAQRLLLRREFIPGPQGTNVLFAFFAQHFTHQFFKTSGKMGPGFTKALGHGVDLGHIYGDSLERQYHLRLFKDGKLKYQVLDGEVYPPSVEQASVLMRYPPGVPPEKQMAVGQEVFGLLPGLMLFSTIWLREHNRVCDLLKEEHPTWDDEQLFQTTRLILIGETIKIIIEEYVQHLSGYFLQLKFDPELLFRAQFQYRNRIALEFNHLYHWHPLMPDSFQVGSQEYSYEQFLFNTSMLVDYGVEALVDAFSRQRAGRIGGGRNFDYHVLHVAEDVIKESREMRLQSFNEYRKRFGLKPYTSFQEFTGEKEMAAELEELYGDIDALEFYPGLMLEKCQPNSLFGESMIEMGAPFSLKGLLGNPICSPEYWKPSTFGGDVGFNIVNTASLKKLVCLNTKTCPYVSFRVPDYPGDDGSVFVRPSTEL
It counts as functional.

Assay [6] concerns the target T4, Type-1 angiotensin II receptor (Homo sapiens, UniProt P30556).
T4 sequence (P30556 whole entry): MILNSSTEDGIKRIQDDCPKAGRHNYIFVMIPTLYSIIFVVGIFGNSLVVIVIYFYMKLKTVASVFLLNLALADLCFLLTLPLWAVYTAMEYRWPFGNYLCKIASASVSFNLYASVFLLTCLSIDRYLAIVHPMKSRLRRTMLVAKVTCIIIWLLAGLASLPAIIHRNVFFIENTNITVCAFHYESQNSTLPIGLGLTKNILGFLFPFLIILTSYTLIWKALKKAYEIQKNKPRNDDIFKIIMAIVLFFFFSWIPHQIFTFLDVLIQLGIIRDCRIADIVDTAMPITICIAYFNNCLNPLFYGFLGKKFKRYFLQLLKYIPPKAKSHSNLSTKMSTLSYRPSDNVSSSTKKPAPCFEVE

The target of assay [7] is Vasopressin V1a receptor (Homo sapiens, UniProt P37288).
For assay [8], the target named is T5, Muscarinic acetylcholine receptor M2 (Homo sapiens, UniProt P08172).
T5 sequence (P08172 whole entry): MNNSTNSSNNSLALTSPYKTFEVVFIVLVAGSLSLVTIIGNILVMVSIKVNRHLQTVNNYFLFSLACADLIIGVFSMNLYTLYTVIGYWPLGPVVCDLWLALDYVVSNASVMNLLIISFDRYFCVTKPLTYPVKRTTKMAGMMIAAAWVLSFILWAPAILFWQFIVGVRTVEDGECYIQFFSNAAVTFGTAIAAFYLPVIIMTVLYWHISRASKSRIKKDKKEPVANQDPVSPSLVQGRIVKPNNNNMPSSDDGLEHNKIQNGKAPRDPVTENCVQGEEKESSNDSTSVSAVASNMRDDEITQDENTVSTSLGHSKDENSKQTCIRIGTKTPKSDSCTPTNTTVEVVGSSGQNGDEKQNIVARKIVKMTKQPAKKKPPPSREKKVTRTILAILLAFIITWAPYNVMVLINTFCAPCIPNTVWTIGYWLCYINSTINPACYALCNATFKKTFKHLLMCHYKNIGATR
It is filed as functional, cell-based.
Note: assay procedure not described here.

Chain of Vasopressin V1a receptor (P37288 whole entry): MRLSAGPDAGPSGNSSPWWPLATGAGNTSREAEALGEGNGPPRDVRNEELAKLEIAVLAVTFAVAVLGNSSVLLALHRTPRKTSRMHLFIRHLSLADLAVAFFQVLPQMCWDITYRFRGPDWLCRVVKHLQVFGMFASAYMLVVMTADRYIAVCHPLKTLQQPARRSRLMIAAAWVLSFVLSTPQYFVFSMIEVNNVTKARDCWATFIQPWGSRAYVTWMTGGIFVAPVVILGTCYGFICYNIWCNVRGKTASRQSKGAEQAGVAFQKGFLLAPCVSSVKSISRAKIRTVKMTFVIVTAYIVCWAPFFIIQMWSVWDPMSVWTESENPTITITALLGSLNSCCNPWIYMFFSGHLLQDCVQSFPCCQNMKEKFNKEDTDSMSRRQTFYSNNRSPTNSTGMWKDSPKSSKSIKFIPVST
Chain of Mu-type opioid receptor (P35372 whole entry): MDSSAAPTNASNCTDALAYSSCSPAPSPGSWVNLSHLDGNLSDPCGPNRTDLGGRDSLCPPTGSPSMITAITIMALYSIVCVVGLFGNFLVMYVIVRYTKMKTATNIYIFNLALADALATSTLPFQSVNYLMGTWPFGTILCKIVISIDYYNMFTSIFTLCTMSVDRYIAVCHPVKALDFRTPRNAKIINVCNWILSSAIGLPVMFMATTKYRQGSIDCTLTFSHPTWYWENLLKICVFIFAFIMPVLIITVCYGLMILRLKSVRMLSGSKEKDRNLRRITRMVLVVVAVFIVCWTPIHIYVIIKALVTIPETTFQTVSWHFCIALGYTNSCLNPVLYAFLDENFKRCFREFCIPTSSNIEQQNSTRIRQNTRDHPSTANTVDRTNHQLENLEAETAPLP
Chain of 5-hydroxytryptamine receptor 2B (P41595 whole entry): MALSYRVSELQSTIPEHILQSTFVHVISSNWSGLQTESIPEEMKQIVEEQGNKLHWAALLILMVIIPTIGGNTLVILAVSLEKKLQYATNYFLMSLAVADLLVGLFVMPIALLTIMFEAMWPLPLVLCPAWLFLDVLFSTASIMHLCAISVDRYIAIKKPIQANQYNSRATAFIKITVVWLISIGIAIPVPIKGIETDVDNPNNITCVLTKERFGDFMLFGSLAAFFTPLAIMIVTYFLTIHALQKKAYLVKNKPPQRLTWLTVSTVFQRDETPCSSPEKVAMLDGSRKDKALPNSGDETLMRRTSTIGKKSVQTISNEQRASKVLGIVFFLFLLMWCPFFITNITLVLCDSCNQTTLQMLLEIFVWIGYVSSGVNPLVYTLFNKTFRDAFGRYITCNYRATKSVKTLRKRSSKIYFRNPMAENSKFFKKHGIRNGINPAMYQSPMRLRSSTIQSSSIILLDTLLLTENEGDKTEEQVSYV

`CCOc1nc2cccc(C(=O)O)c2n1Cc1ccc(-c2ccccc2-c2nnn[nH]2)cc1`: the AC50 (as a rule, the concentration at which the activity in the assay is half-maximal) was greater than 30 µM in assay [1]; greater than 30 µM in assay [2]; greater than 30 µM in assay [3]; greater than 10 µM in assay [4]; greater than 30 µM in assay [5]; 0.0005 µM in assay [6]. In addition, the AC50 in assay [7] and in assay [8] was greater than 30 µM each time.

As for `CCCc1nc2c(C)cc(-c3nc4ccccc4n3C)cc2n1Cc1ccc(-c2ccccc2C(=O)O)cc1`, the AC50 was 10.8 µM in assay [1]; greater than 30 µM in assay [2]; greater than 30 µM in assay [3]; greater than 10 µM in assay [4]; greater than 30 µM in assay [5]; greater than 30 µM in assay [7]. The activity in assay [8] was half-maximal at 5.16 µM (AC50).

With `CC(C)(O/N=C(\C(=O)N[C@@H]1C(=O)N2C(C(=O)[O-])=C(C[n+]3ccccc3)CS[C@H]12)c1csc(N)n1)C(=O)O` [CEFTAZIDIME], the half-maximal activity concentration (AC50) in assay [1], in assay [2], in assay [3], in assay [5], in assay [6] and in assay [7] was greater than 300 µM throughout. In assay [8], this compound gave an AC50 greater than 300 µM.

As to `Cc1nc(Nc2ncc(C(=O)Nc3c(C)cccc3Cl)s2)cc(N2CCN(CCO)CC2)n1` [DASATINIB], the AC50 in assay [1] is greater than 30 µM; in assay [2], greater than 30 µM; in assay [3], greater than 30 µM; in assay [4], greater than 10 µM; in assay [5], greater than 30 µM; in assay [6] it was greater than 30 µM. For the same compound, the concentration at half-maximal activity (AC50) in assay [7] and in assay [8] was greater than 30 µM throughout.

As for `O=C(O)Cc1ccccc1Nc1c(Cl)cccc1Cl` [DICLOFENAC], the AC50 in assay [1] was greater than 30 µM; in assay [3], greater than 10 µM; in assay [4], greater than 10 µM; in assay [6], greater than 30 µM; in assay [7], greater than 30 µM; in assay [8] it was greater than 10 µM.

Consider `O=C(O)Cc1ccccc1Oc1ccc(Cl)cc1Cl` [FENCLOFENAC], for which the AC50 in assay [1] is greater than 30 µM; in assay [3] it was greater than 10 µM; in assay [4], greater than 10 µM; in assay [5], greater than 30 µM; in assay [6] it was greater than 30 µM; in assay [7], greater than 10 µM. In addition, the AC50 in assay [8] is greater than 10 µM.

Regarding `Cc1onc(-c2c(F)cccc2Cl)c1C(=O)N[C@@H]1C(=O)N2[C@@H]1SC(C)(C)[C@@H]2C(=O)O` [FLOXACILLIN], the AC50 in assay [1], in assay [2], in assay [3], in assay [5], in assay [6] and in assay [7] was greater than 30 µM throughout. Further, the AC50 in assay [8] is greater than 30 µM.

Turning to `Cc1ccc(C)c(OCCCC(C)(C)C(=O)O)c1` [GEMFIBROZIL], the AC50 in assay [1] was greater than 30 µM; in assay [3] it was greater than 10 µM; in assay [4], greater than 10 µM; in assay [5], greater than 30 µM; in assay [6], greater than 30 µM; in assay [7], greater than 10 µM. Moreover, the AC50 in assay [8] was greater than 10 µM.

Regarding `COc1cc(C(C)=O)ccc1OCCCN1CCC(c2noc3cc(F)ccc23)CC1` [ILOPERIDONE], the AC50 is 10 µM in assay [1]; greater than 30 µM in assay [2]; greater than 30 µM in assay [3]; 0.0018 µM in assay [4]; greater than 30 µM in assay [5]; greater than 30 µM in assay [6]. Moreover, the AC50 in assay [7] was greater than 30 µM; in assay [8], 8.3 µM.

As for `CC[C@H](C)C(=O)O[C@H]1C[C@@H](C)C=C2C=C[C@H](C)[C@H](CC[C@@H]3C[C@@H](O)CC(=O)O3)[C@H]21` [LOVASTATIN], the AC50 in assay [1] was greater than 30 µM; in assay [3] it was greater than 10 µM; in assay [4], greater than 10 µM; in assay [5], greater than 30 µM; in assay [6], 39.8 µM; in assay [7], greater than 10 µM. Besides, in assay [8], the AC50 is greater than 10 µM.

As for `CN1Cc2c(N)cccc2C(c2ccccc2)C1` (stereo unspecified) [NOMIFENSINE], the AC50 in assay [1] is 4.4 µM; in assay [2] it was greater than 30 µM; in assay [3] it was greater than 30 µM; in assay [5], 7.5 µM; in assay [6], greater than 30 µM; in assay [7], greater than 30 µM. For the same compound, in assay [8], the AC50 is greater than 30 µM.

For the compound `CC(CN1c2ccccc2Sc2ccccc21)N(C)C` (stereo unspecified) [PROMETHAZINE], the AC50 in assay [3] was greater than 10 µM; in assay [4], 0.162 µM; in assay [5], greater than 30 µM; in assay [6] it was greater than 30 µM; in assay [7], greater than 10 µM; in assay [8], 0.322 µM.

Consider `CCCc1cc(=O)[nH]c(=S)[nH]1` [PROPYLTHIOURACIL], for which the AC50 in assay [1] was greater than 30 µM; in assay [2] it was greater than 10 µM; in assay [3], greater than 10 µM; in assay [5] it was 6.6 µM; in assay [6], greater than 10 µM; in assay [7], greater than 10 µM. This compound also displayed an AC50 in assay [8] greater than 10 µM.

Turning to `CC(C)[C@H](N)C(=O)OCCOCn1cnc2c(=O)[nH]c(N)nc21` [VALACYCLOVIR], the AC50 is greater than 30 µM in assay [1]; greater than 10 µM in assay [3]; greater than 10 µM in assay [4]; greater than 30 µM in assay [5]; greater than 30 µM in assay [6]; greater than 10 µM in assay [7]. Further, the AC50 in assay [8] is greater than 10 µM.

As to `O=C1Cc2cc(CCN3CCN(c4nsc5ccccc45)CC3)c(Cl)cc2N1` [ZIPRASIDONE], the AC50 was greater than 30 µM in assay [1]; greater than 30 µM in assay [3]; 0.0317 µM in assay [4]; greater than 30 µM in assay [5]; greater than 30 µM in assay [6]; greater than 10 µM in assay [7]. Besides, in assay [8], the AC50 was greater than 10 µM.
